Read-outs that look alike come from different tables or passages of the source.
Assays:
[1] = target: T1, 5-LO (Homo sapiens, UniProt P09917); assay: 5-LO product formation in intact human neutrophils; assay type: cell-based; set-up: endogenous in cells; host or cells: neutrophils isolated from peripheral blood of healthy adult volunteers; intact or sonicated homogenates
T1 sequence (P09917 1-674): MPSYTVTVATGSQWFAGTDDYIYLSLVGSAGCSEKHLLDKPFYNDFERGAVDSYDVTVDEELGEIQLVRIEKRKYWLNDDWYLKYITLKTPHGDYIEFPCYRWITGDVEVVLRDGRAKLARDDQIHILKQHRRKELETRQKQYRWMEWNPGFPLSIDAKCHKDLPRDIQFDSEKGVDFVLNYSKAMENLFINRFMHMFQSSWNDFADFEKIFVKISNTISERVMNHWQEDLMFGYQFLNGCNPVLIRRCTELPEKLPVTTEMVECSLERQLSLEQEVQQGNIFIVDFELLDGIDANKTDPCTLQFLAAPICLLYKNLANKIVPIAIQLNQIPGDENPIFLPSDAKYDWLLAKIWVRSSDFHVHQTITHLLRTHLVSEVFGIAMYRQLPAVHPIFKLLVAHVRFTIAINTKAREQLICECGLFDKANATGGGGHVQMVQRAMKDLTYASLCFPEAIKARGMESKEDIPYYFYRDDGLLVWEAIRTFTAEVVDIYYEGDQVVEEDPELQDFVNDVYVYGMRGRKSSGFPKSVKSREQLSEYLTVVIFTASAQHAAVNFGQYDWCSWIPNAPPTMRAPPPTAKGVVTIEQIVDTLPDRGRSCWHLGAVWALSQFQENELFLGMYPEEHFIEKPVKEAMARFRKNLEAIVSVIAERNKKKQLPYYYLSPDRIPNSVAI
Experimental: Peripheral blood (University Hospital Jena, Germany) was withdrawn from healthy adult volunteers with consent that had not taken any anti-inflammatory drugs during the last 10 days, by venipuncture in heparinized tubes (16 IE heparin/mL blood). The blood was centrifuged at 4000 g for 20 min at 20° C. for preparation of leukocyte concentrates. Leukocyte concentrates were then subjected to dextran sedimentation and centrifugation on lymphocyte separation medium (LSM 1077, PAA, Colbe, Germany). Contaminating erythrocytes of pelleted neutrophils were removed by hypotonic Iysis. […]
Method B. For determination of 5-LO products in intact neutrophils, the cells (5×10^6) were resuspended in 1 mL PGC buffer, preincubated for 15 min at 37° C. with β-lapachone or vehicle (0.1% DMSO), and incubated for 10 min at 37° C. with 2.5 μM Ca^2+-ionophore A23187 plus 20 μM AA. […] 5-LO products (LTB4, tr-LTB4 isomers, and 5-HETE), were analyzed by RP-HPLC and quantities calculated on the basis of the internal standard PGB1. Cysteinyl-LTs C4, D4 and E4 were not detected (amounts were below detection limit), and oxidation products of LTB4 were not determined.
Data are expressed as mean±S.E.M. IC50 values were calculated from averaged measurements at 6 different concentrations of the compound by nonlinear regression using GraphPad Prism software (San Diego, Calif.) one site binding competition. […]

[2] = target: Phosphodiesterase 5 (PDE5) (Homo sapiens, UniProt O76074); assay: Phosphodiesterase 5 assay (Cerep); assay type: biochemical; conditions: 2 μM
Experimental: Phosphodiesterase 5 (PDE5) assay was performed at Cerep, SA (Celle l'Evescault, France) on a fee-for-service basis (Ref 0204^39), as described in Table 2. [table]

[3] = test system: HEL-GFP cells; assay: Xenograft model of human AML, HEL-GFP cells in NSG mice; assay type: in vivo
Experimental: The xenograft model of human AML used relies in the intra-bone marrow injection of 5×10^5 HEL-GFP cells into the right tibia of previously irradiated (200 rad) NSG mice. Upon tumor trigger in the blood mouse are randomly assigned for treatment with 1 (50 mg/kg intra-peritoneal) or vehicle.

[4] = target: T1, 5-LO; assay: Circular dichroism binding, protein melting curves

CC1(C)CCC2=C(O1)c1ccccc1C(=O)C2=O [Compound 1, 3,4-dihydro-2,2-dimethyl-2H-naphtho[1,2-b]pyran-5,6-dione]
IC50 ([1]; 1 mM DTT, n=4, read-out: IC50, 5-LO activity in intact human neutrophils supplemented with DTT): 0.42 µM | IC50 ([1]; without DTT, A23187 plus arachidonic acid, n=3, read-out: IC50 (5-LO), intact human neutrophils): 8.6 µM | PDE5 screening outcome [2]: inactivity | Overall survival ([3]; 50 mg/kg intra-peritoneal): significantly increased overall survival | Tumour burden in the blood ([3]; 50 mg/kg intra-peritoneal, day 9): tendency for lower burden | Tumour burden in organs (liver, spleen and lung) ([3]; longest-living treated mouse, sacrificed at day 30, versus non-treated controls): lower tumour burden in all the analysed organs | Kd [4]: 5.7 µM

Source: patent US20210161855A1, “5-LIPOXYGENASE ANTAGONISTS” (INSTITUTO DE MEDICINA MOLECULAR JOÃO LOBO ANTUNES, priority 2017, published 2021)
